Assay results taken from patent US10894798B2, “Substituted dihydropyrrolopyrazole derivative” (UBE INDUSTRIES, LTD., priority 2015, dated 2021).

Assays:
CDK7 = molecular target: T1, CDK7 (Homo sapiens, UniProt P50613); assay: CDK7 enzyme inhibition test; type: biochemical; details: [γ-33P]ATP, MBP substrate, 60 min preincubation at 25°C; Ki=IC50/(1+S/Km); read-out: Ki value of CDK7 inhibitory activity
T1 construct: purchased Carna Biosciences, Inc. 04-108
Experimental: (§1) The preparation of a buffer solution was performed by mixing a N-2-hydroxyethylpiperazine-N′-2-ethanesulfonic acid buffer solution (HEPES buffer solution) (pH 7.4), dithiothreitol (DTT), Triton X-100, and magnesium chloride (MgCl2). A 500 μM [γ-^33P]ATP solution was used by diluting a 10 mM ATP solution and a commercially available [γ-^33P]ATP solution (manufactured by PerkinElmer, Inc., Code No. NEG-302H) with the buffer solution. A CDK7 solution was used by diluting commercially available CDK7 (manufactured by Carna Biosciences, Inc., Catalog No. 04-108) with the buffer solution. A substrate solution was used by diluting myelin basic protein (MBP) with the buffer solution. As for the preparation of a reaction solution, the buffer solution, the CDK7 solution, and the substrate solution were mixed at 4° C. to obtain a reaction solution.
CDK7 enzyme reaction was performed by adding 5 μL of a test compound solution prepared with 10% DMSO/90% injectable distilled water, and 40 μL of the reaction solution to a 1.5 mL microtube at 4° C. and preincubating the microtube at 25° C. for 60 minutes in a water bath incubator. Subsequently, reaction was performed at 30° C. for 20 minutes by adding 5 μL of the 500 μM [γ-^33P]ATP solution. After the reaction, a 10% aqueous trichloroacetic acid (TCA) solution was added to each microtube while cooled to 4° C., and mixed in a vortex mixer to terminate the reaction. The resultant was left standing at 4° C. for 10 minutes and then centrifuged, and the supernatant was discarded. Next, a 2% aqueous trichloroacetic acid (TCA) solution was added thereto, mixed in a vortex mixer, and then centrifuged, and the supernatant was discarded. This washing operation was performed twice. After the washing, precipitates were dissolved in a 1 N aqueous sodium hydroxide (NaOH) solution, and the energy quantity (radioactivity) of the reaction product was measured with a liquid scintillation counter.
The calculation of the inhibitory activity of the test compound against CDK7 was performed as a test compound concentration inhibiting 50% of the amount of ^33P bound to MBP (IC50 value) by using EXSUS (version 8.1.0, manufactured by CAC Exicare Corp.).
(§2) The calculation of a Ki value was performed according to the following calculation expression wherein S represents the concentration of ATP contained in the reaction solution, and Km represents a Michaelis-Menten constant: Ki=IC50/(1+S/Km)

CDK2 = molecular target: T2, CDK2 (Homo sapiens, UniProt P24941); assay: CDK2 enzyme inhibition test; type: biochemical; details: [γ-33P]ATP, MBP substrate; Ki=IC50/(1+S/Km); read-out: Ki value of CDK2 inhibitory activity
T2 construct: purchased Invitrogen Corp. PV3267
Experimental: as §1, with “by Perkin Elmer,” for “by PerkinElmer,”, “A CDK2” for “A CDK7”, “available CDK2” for “available CDK7”, “by Invitrogen Corp.,” for “by Carna Biosciences, Inc.,”, “No. PV3267)” for “No. 04-108)”, “the 500 μM [γ-^33P]ATP solution, the CDK2” for “the CDK7”
(§3) CDK2 enzyme reaction was performed by adding 5 μL of a test compound solution prepared with 10% DMSO/90% injectable distilled water, and 45 μL of the reaction solution in a 1.5 mL microtube at 4° C. and reacting in the microtube at 30° C. for 20 minutes in a water bath incubator. After the reaction, a 10% aqueous trichloroacetic acid (TCA) solution was added to each microtube while cooled to 4° C., and mixed in a vortex mixer to terminate the reaction. The resultant was left standing at 4° C. for 10 minutes and then centrifuged, and the supernatant was discarded. Next, a 2% aqueous trichloroacetic acid (TCA) solution was added thereto, mixed in vortex mixer, and then centrifuged, and the supernatant was discarded. This washing operation was performed twice. After the washing, precipitates were dissolved in a 1 N aqueous sodium hydroxide (NaOH) solution, and the energy quantity (radioactivity) of the reaction product was measured with a liquid scintillation counter.
The calculation of the inhibitory activity of the test compound against CDK2 was performed as a test compound concentration inhibiting 50% of the amount of ^33P bound to MBP (IC50 value) by using EXSUS (version 8.1.0, manufactured by CAC Exicare Corp.).
as §2

PLK1 = molecular target: T3, PLK1 (Homo sapiens, UniProt P53350); assay: PLK1 enzyme (polo-like kinase) inhibition test; type: biochemical; details: [γ-33P]ATP, casein substrate; Ki=IC50/(1+S/Km); read-out: Ki value of PLK1 inhibitory activity
T3 construct: purchased Carna Biosciences, Inc. 05-157
T3 sequence (P53350 whole entry): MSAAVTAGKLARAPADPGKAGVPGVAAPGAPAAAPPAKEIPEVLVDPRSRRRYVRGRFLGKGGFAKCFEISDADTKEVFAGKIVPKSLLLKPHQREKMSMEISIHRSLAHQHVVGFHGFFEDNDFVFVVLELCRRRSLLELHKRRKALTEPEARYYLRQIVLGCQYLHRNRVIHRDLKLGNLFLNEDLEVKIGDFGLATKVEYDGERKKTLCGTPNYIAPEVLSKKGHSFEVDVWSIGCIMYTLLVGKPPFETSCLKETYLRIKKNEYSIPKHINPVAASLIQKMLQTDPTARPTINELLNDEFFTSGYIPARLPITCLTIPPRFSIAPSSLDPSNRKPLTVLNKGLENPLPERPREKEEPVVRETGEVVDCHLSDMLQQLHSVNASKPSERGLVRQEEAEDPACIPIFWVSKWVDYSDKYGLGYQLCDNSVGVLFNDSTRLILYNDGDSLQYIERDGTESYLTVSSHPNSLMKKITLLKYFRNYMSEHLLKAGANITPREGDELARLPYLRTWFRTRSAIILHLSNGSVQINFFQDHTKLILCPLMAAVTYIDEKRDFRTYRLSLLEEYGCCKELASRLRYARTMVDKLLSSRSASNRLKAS
Experimental: The preparation of a buffer solution was performed by mixing a 3-morpholinopropanesulfonic acid buffer solution (MOPS buffer solution) (pH 7.0), dithiothreitol (DTT), and magnesium acetate (Mg(CH3COO)2). A 1 mM [γ-^33P]ATP solution was used by diluting a 10 mM ATP solution and a commercially available [γ-^33P]ATP solution (manufactured by Perkin Elmer, Inc., Code No. NEG-302H) with the buffer solution. A PLK1 solution was used by diluting commercially available PLK1 (manufactured by Carna Biosciences, Inc., Catalog No. 05-157) with the buffer solution. A substrate solution was used by diluting casein with the buffer solution. As for the preparation of a reaction solution, the buffer solution, the 500 μM [γ-^33P]ATP solution, the PLK1 solution, and the substrate solution were mixed at 4° C. to obtain a reaction solution.
as §3, with “PLK1 enzyme reaction” for “CDK2 enzyme reaction”, “mixed in a vortex mixer,” for “mixed in vortex mixer,”
The calculation of the inhibitory activity of the test compound against PLK1 was performed as a test compound concentration inhibiting 50% of the amount of ^33P bound to casein (IC50 value) by using EXSUS (version 8.1.0, manufactured by CAC Exicare Corp.).
as §2

[1] = test system: human large intestine cancer cell line (HCT-116); assay: Human large intestine cancer (HCT-116) cell growth inhibition test; type: cell-based; details: HCT-116, 72 h, culture for 3 days, sulforhodamine B, read-out: GI50 value, HCT-116 cell growth inhibition
Experimental: The measurement of a human large intestine cancer cell growth inhibitory effect was carried out by modifying the method of Simak et al. (Cancer Research, 69, 6208 (2009)).
A human large intestine cancer cell line (HCT-116, obtained from DS Pharma Biomedical Co., Ltd.) was cultured in a McCoy's 5A medium (manufactured by Thermo Fisher Scientific, Inc.) containing 10% fetal bovine serum (FBS) (manufactured by Thermo Fisher Scientific, Inc.) and 1% penicillin/streptomycin/amphotericin B (manufactured by Thermo Fisher Scientific, Inc.) and inoculated at 0.5 to 2.0×10^3 cells/well in a 96-well plate. After overnight culture in a carbon dioxide incubator, the medium was replaced with a fresh medium on the next day, and a test compound dissolved in DMSO (final DMSO concentration: 0.1%) was added thereto and left standing in a carbon dioxide incubator. After culture for 3 days, the absorbance thereof was measured by using In Vitro Toxicology Assay Kit Sulforhodamine B based (manufactured by Sigma-Aldrich Co. LLC.).
The rate of inhibition of cell growth at each concentration was calculated from the test compound concentration and the absorbance of sulforhodamine B, and the concentration of the test compound necessary for inhibiting 50% of cell growth (GI50 value) was calculated by using EXSUS (version 8.1.0, manufactured by CAC Exicare Corp.).

T1 sequence (P50613 whole entry): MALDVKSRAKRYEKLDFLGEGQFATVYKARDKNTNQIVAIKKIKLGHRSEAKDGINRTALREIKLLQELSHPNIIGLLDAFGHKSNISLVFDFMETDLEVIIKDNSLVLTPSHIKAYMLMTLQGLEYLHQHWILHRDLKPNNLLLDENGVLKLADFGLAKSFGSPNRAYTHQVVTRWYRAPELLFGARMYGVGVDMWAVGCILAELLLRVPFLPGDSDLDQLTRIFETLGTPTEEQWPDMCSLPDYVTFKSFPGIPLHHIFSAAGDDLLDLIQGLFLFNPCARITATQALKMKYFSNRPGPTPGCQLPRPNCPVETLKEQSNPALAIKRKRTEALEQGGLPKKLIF
T1 sequence (P51946 whole entry partner): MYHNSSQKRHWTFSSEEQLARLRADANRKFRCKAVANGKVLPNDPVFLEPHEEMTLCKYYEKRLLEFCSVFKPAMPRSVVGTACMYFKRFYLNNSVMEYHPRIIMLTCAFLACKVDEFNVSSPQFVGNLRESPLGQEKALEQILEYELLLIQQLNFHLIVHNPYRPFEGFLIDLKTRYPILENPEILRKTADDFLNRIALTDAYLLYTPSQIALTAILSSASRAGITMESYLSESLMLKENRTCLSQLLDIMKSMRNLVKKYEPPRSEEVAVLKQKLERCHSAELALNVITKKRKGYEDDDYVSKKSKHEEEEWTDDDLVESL
T1 sequence (P51948 whole entry partner): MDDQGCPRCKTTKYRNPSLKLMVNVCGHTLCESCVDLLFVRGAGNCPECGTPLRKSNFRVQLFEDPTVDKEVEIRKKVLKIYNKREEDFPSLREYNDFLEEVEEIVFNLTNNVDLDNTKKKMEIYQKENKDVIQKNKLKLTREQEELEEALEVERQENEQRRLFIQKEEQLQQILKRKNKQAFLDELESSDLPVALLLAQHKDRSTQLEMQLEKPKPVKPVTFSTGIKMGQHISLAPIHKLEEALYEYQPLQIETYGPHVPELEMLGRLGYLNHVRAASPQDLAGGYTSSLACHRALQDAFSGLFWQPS

Ki (CDK7)	Ki (CDK2)	Ki (PLK1)	GI50 [1]	SMILES
≤ 50 nM	≥ 1000 nM	≥ 5000 nM	≤ 100 nM	CC1(C)c2[nH]nc(NC(=O)C3([Si](C)(C)C)CCC3)c2CN1C(=O)Nc1ccccc1OC(F)F [IV-87, N-[2-(Difluoromethoxy)phenyl]-6,6-dimethyl-3-[1-(trimethylsilyl)cyclobutanecarboxamido]-4,6-dihydropyrrolo[3,4-c]pyrazole-5(1H)-carboxamide]
≤ 50 nM	≥ 1000 nM	≥ 5000 nM	≤ 100 nM	CC1(C)c2[nH]nc(NC(=O)C3([Si](C)(C)C)CCC3)c2CN1C(=O)Nc1c(F)cccc1F [IV-105, N-(2,6-Difluorophenyl)-6,6-dimethyl-3-[1-(trimethylsilyl)cyclobutanecarboxamido]-4,6-dihydropyrrolo[3,4-c]pyrazole-5(1H)-carboxamide]
≤ 50 nM	≥ 1000 nM	≥ 5000 nM	≤ 100 nM	Cc1coc2c(NC(=O)N3Cc4c(NC(=O)C5([Si](C)(C)C)CCC5)n[nH]c4C3(C)C)c(F)ccc12 [IV-1061, N-(6-Fluoro-3-methylbenzofuran-7-yl)-6,6-dimethyl-3-[1-(trimethylsilyl)cyclobutanecarboxamido]-4,6-dihydropyrrolo[3,4-c]pyrazole-5(1H)-carboxamide]
≤ 50 nM	≥ 1000 nM	≥ 5000 nM	≤ 100 nM	CC1(C)c2[nH]nc(NC(=O)C3([Si](C)(C)C)CC3)c2CN1C(=O)Nc1c(Cl)cccc1Cl [III-199, N-(2,6-Dichlorophenyl)-6,6-dimethyl-3-[1-(trimethylsilyl)cyclopropanecarboxamido]-4,6-dihydropyrrolo[3,4-c]pyrazole-5(1H)-carboxamide]
≤ 50 nM	≥ 1000 nM	≥ 5000 nM	≤ 100 nM	Cc1ccc(NC(=O)N2Cc3c(NC(=O)C4([Si](C)(C)C)CCC4)n[nH]c3C2(C)C)c(C)c1 [IV-377, N-(2,4-Dimethylphenyl)-6,6-dimethyl-3-[1-(trimethylsilyl)cyclobutanecarboxamido]-4,6-dihydropyrrolo[3,4-c]pyrazole-5(1H)-carboxamide]
≤ 50 nM	≥ 1000 nM	≥ 5000 nM	≤ 100 nM	CC1(C)c2[nH]nc(NC(=O)C3([Si](C)(C)C)CCC3)c2CN1C(=O)Nc1c(F)ccc2c1OCC2 [IV-997, N-(6-Fluoro-2,3-dihydrobenzofuran-7-yl)-6,6-dimethyl-3-[1-(trimethylsilyl)cyclobutanecarboxamido]-4,6-dihydropyrrolo[3,4-c]pyrazole-5(1H)-carboxamide]

The remaining lines, values behind:

SMILES	Ki (CDK7)	Ki (CDK2)	Ki (PLK1)	GI50 [1]
CC1(C)c2[nH]nc(NC(=O)C3([Si](C)(C)C)CC3)c2CN1C(=O)Nc1c(F)cccc1OC(F)F [III-169, N-[2-(Difluoromethoxy)-6-fluorophenyl]-6,6-dimethyl-3-[1-(trimethylsilyl)cyclopropanecarboxamido]-4,6-dihydropyrrolo[3,4-c]pyrazole-5(1H)-carboxamide]	≤ 50 nM	≥ 1000 nM	≥ 5000 nM	≤ 100 nM
CC1(C)c2[nH]nc(NC(=O)C(C)(C)[Si](C)(C)C)c2CN1C(=O)Nc1c(F)ccc2ccoc12 [II-1049, N-(6-Fluorobenzofuran-7-yl)-6,6-dimethyl-3-[2-methyl-2-(trimethylsilyl)propanamido]-4,6-dihydropyrrolo[3,4-c]pyrazole-5(1H)-carboxamide]	≤ 50 nM	≥ 1000 nM	≥ 5000 nM	≤ 100 nM
Cc1ccc(F)c(Cl)c1NC(=O)N1Cc2c(NC(=O)C3([Si](C)(C)C)CCC3)n[nH]c2C1(C)C [IV-747, N-(2-Chloro-3-fluoro-6-methylphenyl)-6,6-dimethyl-3-[1-(trimethylsilyl)cyclobutanecarboxamido]-4,6-dihydropyrrolo[3,4-c]pyrazole-5(1H)-carboxamide]	≤ 50 nM	≥ 1000 nM	≥ 5000 nM	≤ 100 nM
CC1(C)c2[nH]nc(NC(=O)C3([Si](C)(C)C)CCC3)c2CN1C(=O)Nc1c(Cl)cccc1C1CC1 [IV-231, N-(2-Chloro-6-cyclopropylphenyl)-6,6-dimethyl-3-[1-(trimethylsilyl)cyclobutanecarboxamido]-4,6-dihydropyrrolo[3,4-c]pyrazole-5(1H)-carboxamide]	≤ 50 nM	≥ 1000 nM	≥ 5000 nM	≤ 100 nM
